In patent US20110027205A1, “USE OF MYRTLE EXTRACT AS DEPIGMENTING AGENT” (PIERRE FABRE DERMO-COSMETIQUE, priority 2008, published 2011):

System: melanocytes
Assay: Activity on melanogenesis (melanin content of melanocytes, 450 nm)
Format: cell-based
Settings: Melanocyte, 72 hours, read-out: % inhibition of melanin synthesis
Description: The melanocytes are left to incubate in a suitable culture medium at 37° C. for 72 hours in contact with the myrtle extract according to example 1, at different concentrations, and with hydroquinone, the reference substance. At the end of the incubation period, the melanocytes are collected and washed. The cells are then treated with a sodium solution to extract the melanin. The stained solutions are then assayed under 450 nm spectrophotometry for their melanin content using a calibration curve. A melanogenesis-inhibiting activity of the tested products will translate as a lower melanin content in the extracted melanocyte solutions. A prior cytotoxicity test is evidently performed on these same cells to verify the non-toxicity of the extracts at the tested concentrations.

SMILES: Oc1ccc(O)cc1 [Hydroquinone]
- inhibition at 5 µM (0.005 mM): 35.7%
- inhibition at 10 µM (0.01 mM): 58%
